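Cultured in 96-well plates, cells were exposed to test compound for 48 hours across five concentrations. GI50 is the concentration that inhibits growth by half. At the TGI there is no net growth.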
Assays:
Test in all cases: DTP human tumour cell line panel, 48 h
[1] = system: ACHN renal
[2] = system: NCI-H23 lung
[3] = system: NCI-H522 lung
[4] = system: T-47D breast
[5] = system: HOP-92 NSCLC
[6] = system: MDA-MB-435
[7] = system: IGROV1 ovarian
[8] = system: OVCAR-5 ovarian
[9] = system: SK-MEL-2 melanoma
[10] = system: MALME-3M melanoma
[11] = system: UACC-62 melanoma
[12] = system: U251 CNS
[13] = system: HOP-62 NSCLC
[14] = system: UACC-257 melanoma
[15] = system: NCI-H226 lung
[16] = system: NCI-H460 lung
[17] = system: MOLT-4 leukemia
[18] = system: HT29 colon
[19] = system: COLO 205 colon
[20] = system: NCI/ADR-RES ovarian
[21] = system: OVCAR-3 ovarian
[22] = system: SK-MEL-5 melanoma
[23] = system: HS 578T breast
[24] = system: HCT-15 colon
[25] = system: MDA-MB-231 breast
[26] = system: UO-31 renal
[27] = system: HCC-2998 colon
[28] = system: 786-0 renal
[29] = system: HCT-116 colon
[30] = system: MCF7 breast
[31] = system: RXF 393 renal
[32] = system: CAKI-1 renal
[33] = system: SNB-75 CNS
[34] = system: SNB-19 CNS
[35] = system: A549 NSCLC
[36] = system: SN12C renal
[37] = system: BT-549 breast
[38] = system: K-562 leukemia
[39] = system: LOX IMVI melanoma
[40] = system: TK-10 renal
[41] = system: SF-268 CNS
[42] = system: SW-620 colon
[43] = system: A498 renal
[44] = system: M14 melanoma
[45] = system: DU-145 prostate
[46] = system: OVCAR-8 ovarian
[47] = system: PC-3 prostate
[48] = system: HL-60(TB) leukemia
[49] = system: EKVX NSCLC
[50] = system: SK-OV-3 ovarian
[51] = system: SR leukemia
[52] = system: CCRF-CEM leukemia
[53] = system: SF-295 CNS
[54] = system: RPMI-8226 leukemia
[55] = system: SK-MEL-28 melanoma
[56] = system: OVCAR-4 ovarian
[57] = system: SF-539 CNS
[58] = system: KM12 colon

## N#Cc1c(-c2ccc(Cl)cc2)cc(-c2cc(O)ccc2O)nc1N
[1]
  GI50: 1890 nM
  TGI: 12200 nM
[2]
  GI50: 1220 nM
  TGI: 5280 nM
[3]
  GI50: 606 nM
  TGI: 2720 nM
[4]
  GI50: 854 nM
  TGI: 5640 nM
[5]
  GI50: 2390 nM
  TGI: 10800 nM
[6]
  GI50: 686 nM
  TGI: 2740 nM
[7]
  GI50: 1240 nM
  TGI: 4770 nM
[8]
  GI50: 5070 nM
  TGI: 25700 nM
[9]
  GI50: 2600 nM
  TGI: 9160 nM
[10]
  GI50: 1540 nM
  TGI: 4270 nM
[11]
  GI50: 1450 nM
  TGI: 3990 nM
[12]
  GI50: 669 nM
  TGI: 2410 nM
[13]
  GI50: 908 nM
  TGI: 3500 nM
[14]
  GI50: 1830 nM
  TGI: 7440 nM
[15]
  GI50: 2540 nM
  TGI: 9870 nM
[16]
  GI50: 935 nM
  TGI: 4870 nM
[17]
  GI50: 666 nM
  TGI: 5020 nM
[18]
  GI50: 11700 nM
  TGI: > 53300 nM
[19]
  GI50: 22400 nM
  TGI: > 100000 nM
[20]
  GI50: 8800 nM
  TGI: > 100000 nM
[21]
  GI50: 472 nM
  TGI: 1510 nM
[22]
  GI50: 853 nM
  TGI: 2400 nM
[23]
  GI50: 1730 nM
  TGI: > 100000 nM
[24]
  GI50: 4740 nM
  TGI: > 52800 nM
[25]
  GI50: 1250 nM
  TGI: 5090 nM
[26]
  GI50: 5120 nM
  TGI: 23600 nM
[27]
  GI50: 1170 nM
  TGI: 3460 nM
[28]
  GI50: 2060 nM
  TGI: 6490 nM
[29]
  GI50: 553 nM
  TGI: > 34000 nM
[30]
  GI50: 566 nM
  TGI: > 32800 nM
[31]
  GI50: 835 nM
  TGI: 2720 nM
[32]
  GI50: 2980 nM
  TGI: 19100 nM
[33]
  GI50: 914 nM
  TGI: 4040 nM
[34]
  GI50: 1290 nM
  TGI: > 45300 nM
[35]
  GI50: 2330 nM
  TGI: 13800 nM
[36]
  GI50: 1170 nM
  TGI: 5630 nM
[37]
  GI50: 3410 nM
  TGI: 31200 nM
[38]
  GI50: 402 nM
  TGI: > 100000 nM
[39]
  GI50: 558 nM
  TGI: 1890 nM
[40]
  GI50: 4080 nM
  TGI: 32800 nM
[41]
  GI50: 825 nM
  TGI: 7150 nM
[42]
  GI50: 773 nM
  TGI: 4680 nM
[43]
  GI50: 1410 nM
  TGI: 6140 nM
[44]
  GI50: 1230 nM
  TGI: 5630 nM
[45]
  GI50: 1250 nM
  TGI: 10500 nM
[46]
  GI50: 1370 nM
  TGI: 4930 nM
[47]
  GI50: 1480 nM
  TGI: > 33900 nM
[48]
  GI50: 7640 nM
  TGI: > 87900 nM
[49]
  GI50: 2770 nM
  TGI: > 62900 nM
[50]
  GI50: 2420 nM
  TGI: 6340 nM
[51]
  GI50: 605 nM
  TGI: > 100000 nM
[52]
  GI50: 1230 nM
  TGI: > 100000 nM
[53]
  GI50: 2940 nM
  TGI: 9770 nM
[54]
  GI50: 3200 nM
  TGI: > 100000 nM
[55]
  GI50: 1760 nM
  TGI: 4230 nM
[56]
  GI50: 576 nM
  TGI: 2200 nM
[57]
  GI50: 981 nM
  TGI: 3290 nM
[58]
  GI50: 2000 nM
  TGI: 14900 nM

## O=C(CC1(O)C(=O)N(Cc2ccccc2)c2ccc(Br)cc21)c1ccc(C(=O)NCC2CCC3(CC2)OOC2(CCCCC2)OO3)cc1 (configuration not stated)
[1]
  GI50: 239 nM
  TGI: 598 nM
[2]
  GI50: 237 nM
  TGI: 595 nM
[3]
  GI50: 214 nM
  TGI: 556 nM
[4]
  GI50: 1300 nM
  TGI: 6280 nM
[5]
  GI50: 213 nM
  TGI: 468 nM
[6]
  GI50: 647 nM
  TGI: 1930 nM
[7]
  GI50: 278 nM
  TGI: 799 nM
[8]
  GI50: 1580 nM
  TGI: 15600 nM
[9]
  GI50: 3690 nM
  TGI: 13200 nM
[10]
  GI50: 594 nM
  TGI: 2050 nM
[11]
  GI50: 11200 nM
  TGI: > 59000 nM
[12]
  GI50: 301 nM
  TGI: 920 nM
[13]
  GI50: 237 nM
  TGI: 619 nM
[14]
  GI50: 16100 nM
  TGI: > 100000 nM
[15]
  GI50: 5060 nM
  TGI: 19300 nM
[16]
  GI50: 488 nM
  TGI: 1660 nM
[17]
  GI50: 1980 nM
  TGI: 6540 nM
[18]
  GI50: 615 nM
  TGI: 2060 nM
[19]
  GI50: 2040 nM
  TGI: 5950 nM
[20]
  GI50: 583 nM
  TGI: 1810 nM
[21]
  GI50: 435 nM
  TGI: 1520 nM
[22]
  GI50: 3010 nM
  TGI: 10000 nM
[23]
  GI50: 2930 nM
  TGI: 15900 nM
[24]
  GI50: 1150 nM
  TGI: 4670 nM
[25]
  GI50: 549 nM
  TGI: 2030 nM
[26]
  GI50: 187 nM
  TGI: 363 nM
[27]
  GI50: 2190 nM
  TGI: 5100 nM
[28]
  GI50: 173 nM
  TGI: 334 nM
[29]
  GI50: 2080 nM
  TGI: 8180 nM
[30]
  GI50: 2650 nM
  TGI: > 87900 nM
[31]
  GI50: 554 nM
  TGI: 1290 nM
[32]
  GI50: 557 nM
  TGI: 1060 nM
[33]
  GI50: 1530 nM
  TGI: 6020 nM
[34]
  GI50: 8130 nM
  TGI: > 100000 nM
[35]
  GI50: 224 nM
  TGI: 496 nM
[36]
  GI50: 1160 nM
  TGI: 3180 nM
[37]
  GI50: 3260 nM
  TGI: 20100 nM
[38]
  GI50: 1690 nM
  TGI: 8280 nM
[39]
  GI50: 152 nM
  TGI: 304 nM
[40]
  GI50: 350 nM
  TGI: 989 nM
[41]
  GI50: 2030 nM
  TGI: 6740 nM
[42]
  GI50: 2890 nM
  TGI: 10100 nM
[43]
  GI50: 2220 nM
  TGI: 6860 nM
[44]
  GI50: 4310 nM
  TGI: 30600 nM
[45]
  GI50: 191 nM
  TGI: 354 nM
[46]
  GI50: 285 nM
  TGI: 1010 nM
[47]
  GI50: 1730 nM
  TGI: 12500 nM
[48]
  GI50: 330 nM
  TGI: 1120 nM
[49]
  GI50: 437 nM
  TGI: 1590 nM
[50]
  GI50: 7260 nM
  TGI: > 24200 nM
[51]
  GI50: 216 nM
  TGI: 981 nM
[52]
  GI50: 350 nM
  TGI: 1110 nM
[53]
  GI50: 794 nM
  TGI: 2460 nM
[54]
  GI50: 830 nM
  TGI: 3690 nM
[55]
  GI50: 17000 nM
  TGI: > 100000 nM
[56]
  GI50: 3810 nM
  TGI: 16300 nM
[57]
  GI50: 322 nM
  TGI: 988 nM
[58]
  GI50: 435 nM
  TGI: 1700 nM
